In brackets after ≈: the same amount, converted by molar mass.
Tests used:
[1] = Oral bioavailability in Wistar Han rat at 5 mg/kg by LC-MS/MS analysis; format: ADME, organism-based; conditions: in vivo
[2] = molecular target: Leucine-rich repeat serine/threonine-protein kinase 2 (Homo sapiens, UniProt Q5S007, G2019S); assay: Inhibition of recombinant N-terminal GST-fused LRRK2 […] mutant (970 to 2527 residues) (unknown origin) preincubated with enzyme for 15 mins followed by fluorescein-labeled LRRKtide peptide substrate and ATP addition for 90 mins by TR-FRET assay
Sequence of Leucine-rich repeat serine/threonine-protein kinase 2 (Q5S007 whole entry G2019S, the tested form may be a part): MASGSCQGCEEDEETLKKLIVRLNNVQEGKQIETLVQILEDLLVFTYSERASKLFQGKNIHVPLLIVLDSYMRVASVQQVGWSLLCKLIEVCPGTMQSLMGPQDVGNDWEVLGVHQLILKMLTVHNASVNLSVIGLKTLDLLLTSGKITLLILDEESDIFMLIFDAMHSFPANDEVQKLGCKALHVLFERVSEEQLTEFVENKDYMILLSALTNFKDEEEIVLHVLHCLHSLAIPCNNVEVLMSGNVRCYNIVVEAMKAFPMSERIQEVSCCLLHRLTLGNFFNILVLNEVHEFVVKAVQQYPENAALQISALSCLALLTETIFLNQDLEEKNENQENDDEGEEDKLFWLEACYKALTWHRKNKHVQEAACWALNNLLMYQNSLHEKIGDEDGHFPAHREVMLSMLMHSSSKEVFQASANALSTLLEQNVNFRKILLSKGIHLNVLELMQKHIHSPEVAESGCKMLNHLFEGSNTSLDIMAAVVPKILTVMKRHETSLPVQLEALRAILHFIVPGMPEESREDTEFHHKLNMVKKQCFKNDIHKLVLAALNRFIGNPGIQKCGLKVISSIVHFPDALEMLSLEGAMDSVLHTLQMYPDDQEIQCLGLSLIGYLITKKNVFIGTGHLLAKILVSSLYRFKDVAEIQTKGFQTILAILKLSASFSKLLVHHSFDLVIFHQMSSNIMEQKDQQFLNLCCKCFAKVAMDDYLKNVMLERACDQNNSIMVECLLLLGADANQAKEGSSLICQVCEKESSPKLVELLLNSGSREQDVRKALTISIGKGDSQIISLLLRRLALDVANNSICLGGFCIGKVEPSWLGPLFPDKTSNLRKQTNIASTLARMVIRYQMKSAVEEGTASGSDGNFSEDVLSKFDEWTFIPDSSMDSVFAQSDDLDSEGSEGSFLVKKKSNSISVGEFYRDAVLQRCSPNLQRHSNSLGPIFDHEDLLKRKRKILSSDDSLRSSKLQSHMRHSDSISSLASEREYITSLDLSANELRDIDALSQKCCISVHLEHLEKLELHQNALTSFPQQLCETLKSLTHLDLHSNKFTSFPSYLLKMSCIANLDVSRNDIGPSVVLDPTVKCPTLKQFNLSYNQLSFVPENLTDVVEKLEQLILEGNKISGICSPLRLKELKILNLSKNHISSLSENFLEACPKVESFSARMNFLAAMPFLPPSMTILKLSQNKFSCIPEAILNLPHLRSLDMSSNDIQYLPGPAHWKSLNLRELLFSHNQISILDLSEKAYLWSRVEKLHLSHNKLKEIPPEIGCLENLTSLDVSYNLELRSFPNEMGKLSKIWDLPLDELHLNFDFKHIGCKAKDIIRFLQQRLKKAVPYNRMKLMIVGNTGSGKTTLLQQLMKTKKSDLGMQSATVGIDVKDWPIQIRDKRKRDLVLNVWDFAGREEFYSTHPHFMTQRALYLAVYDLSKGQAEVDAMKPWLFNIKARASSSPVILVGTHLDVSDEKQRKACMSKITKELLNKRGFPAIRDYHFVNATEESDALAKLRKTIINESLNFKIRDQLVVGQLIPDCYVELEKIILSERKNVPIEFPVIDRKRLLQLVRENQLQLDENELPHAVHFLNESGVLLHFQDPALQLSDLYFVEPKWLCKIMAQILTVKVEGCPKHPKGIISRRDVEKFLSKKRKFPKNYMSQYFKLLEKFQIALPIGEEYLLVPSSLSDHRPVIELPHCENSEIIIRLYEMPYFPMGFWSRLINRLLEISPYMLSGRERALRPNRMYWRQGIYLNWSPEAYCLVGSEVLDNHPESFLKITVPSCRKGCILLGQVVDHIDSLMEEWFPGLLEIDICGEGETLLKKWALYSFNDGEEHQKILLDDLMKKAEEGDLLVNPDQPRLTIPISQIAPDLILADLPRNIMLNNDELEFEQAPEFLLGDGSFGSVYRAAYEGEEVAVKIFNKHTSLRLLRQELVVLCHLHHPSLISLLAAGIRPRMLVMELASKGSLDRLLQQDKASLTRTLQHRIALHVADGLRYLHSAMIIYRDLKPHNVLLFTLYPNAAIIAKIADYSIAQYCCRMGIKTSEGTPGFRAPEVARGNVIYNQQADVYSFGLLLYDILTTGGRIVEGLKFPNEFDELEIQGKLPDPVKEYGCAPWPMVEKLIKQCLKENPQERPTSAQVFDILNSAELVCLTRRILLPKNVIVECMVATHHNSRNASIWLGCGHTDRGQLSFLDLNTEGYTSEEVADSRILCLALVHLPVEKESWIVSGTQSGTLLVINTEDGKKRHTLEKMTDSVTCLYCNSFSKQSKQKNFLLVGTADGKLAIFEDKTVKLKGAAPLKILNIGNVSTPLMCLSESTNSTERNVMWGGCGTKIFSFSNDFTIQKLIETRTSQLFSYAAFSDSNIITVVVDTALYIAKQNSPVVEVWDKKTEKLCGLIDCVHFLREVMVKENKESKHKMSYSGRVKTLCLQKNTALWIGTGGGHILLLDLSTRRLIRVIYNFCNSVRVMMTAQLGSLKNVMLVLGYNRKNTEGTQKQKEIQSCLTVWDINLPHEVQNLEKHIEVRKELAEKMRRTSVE

[3] = test system: Leucine-rich repeat serine/threonine-protein kinase 2 (Homo sapiens), Q5S007 [G2019S]; assay: Inhibition of LRRK2 […] mutant expressed in human SH-SY5Y cells assessed as unbound concentration required for inhibition of phosphorylation of LRRK2 at Ser935 residue incubated for 90 mins by MSD assay; format: cell-based
Sequence of Leucine-rich repeat serine/threonine-protein kinase 2 (Homo sapiens), Q5S007 [G2019S] (Q5S007 whole entry G2019S): as the sequence (Q5S007 whole entry G2019S, the tested form may be a part) above

rat Mdr1a (P-gp) = assay: Apparent permeability from apical to basolateral side in rat Mdr1a-transfected pig LLC-PK1 cells at 0.1 to 1 uM measured after 3 hrs by LC/MS/MS analysis; format: ADME, cell-based, Sus scrofa; conditions: dose 0.1-1 µM
[4] = Intrinsic clearance in human hepatocytes at 0.3 uM incubated for 90 mins by LC/MS/MS analysis; format: ADME, cell-based, Hepatocyte; conditions: read-out: CLH
[5] = Intrinsic clearance in rat hepatocytes at 0.3 uM incubated for 90 mins by LC/MS/MS analysis; format: ADME, cell-based, Hepatocyte; conditions: read-out: CLH
[6] = Intrinsic clearance in Wistar Han rat at 2 mg/kg, iv by LC-MS/MS analysis; format: ADME, organism-based; conditions: in vivo
[7] = MRT in Wistar Han rat at 2 mg/kg, iv by LC-MS/MS analysis; format: ADME, organism-based; conditions: in vivo
[8] = Oral bioavailability in Beagle dog at 0.5 mg/kg by LC-MS/MS analysis; format: ADME, organism-based, Canis lupus familiaris; conditions: in vivo
mouse Bcrp [9] = assay: Efflux ratio of apparent permeability across basolateral to apical over apical to basolateral side in mouse Bcrp-transfected dog MDCK-II cells at 0.1 to 1 uM measured after 3 hrs by LC/MS/MS analysis; format: ADME, cell-based, Canis lupus familiaris; conditions: dose 0.1-1 µM
Salmonella typhimurium [10] = assay: Mutagenicity in Salmonella typhimurium TA1535 at 30 to 5000 ug incubated for 48 hrs in presence of liver S9 fraction by AMES test; format: toxicity, organism-based, Salmonella enterica subsp. enterica serovar Typhimurium; conditions: s9, 48 h, dose 30-5000 µg
Salmonella typhimurium [11] = assay: Mutagenicity in Salmonella typhimurium TA98 at 30 to 5000 ug incubated for 48 hrs in presence of liver S9 fraction by AMES test; format: toxicity, organism-based, Salmonella enterica subsp. enterica serovar Typhimurium; conditions: s9, 48 h, dose 30-5000 µg
Salmonella typhimurium [12] = assay: Mutagenicity in Salmonella typhimurium TA100 at 30 to 5000 ug incubated for 48 hrs in presence of liver S9 fraction by AMES test; format: toxicity, organism-based, Salmonella enterica subsp. enterica serovar Typhimurium; conditions: s9, 48 h, dose 30-5000 µg
[13] = Total plasma clearance in Beagle dog at 1 mg/kg, iv by LC-MS/MS analysis; format: ADME, organism-based, Canis lupus familiaris
[14] = Total plasma clearance in Rhesus monkey at 3 mg/kg, iv by LC-MS/MS analysis; format: ADME, organism-based, Macaca mulatta
[15] = Intrinsic clearance in Beagle dog at 1 mg/kg, iv by LC-MS/MS analysis; format: ADME, organism-based, Canis lupus familiaris; conditions: in vivo
[16] = Intrinsic clearance in Rhesus monkey at 3 mg/kg, iv by LC-MS/MS analysis; format: ADME, organism-based, Macaca mulatta; conditions: in vivo
[17] = MRT in Rhesus monkey at 3 mg/kg, iv by LC-MS/MS analysis; format: ADME, organism-based, Macaca mulatta; conditions: in vivo
[18] = Oral bioavailability in Rhesus monkey at 2 mg/kg by LC-MS/MS analysis; format: ADME, organism-based, Macaca mulatta; conditions: in vivo
[19] = Unbound fraction in CD rat brain at 1 to 100 mg/kg, po measured after 120 mins by LC/MS/MS analysis; format: ADME, organism-based; conditions: in vivo, 2 h, dose 1-100 mg/kg
[20] = Unbound fraction in CD rat plasma at 1 to 100 mg/kg, po measured after 120 mins by LC/MS/MS analysis; format: ADME, organism-based; conditions: in vivo, 2 h, dose 1-100 mg/kg
Substance-P receptor = Substance-P receptor (Homo sapiens, UniProt P25103); assay: Inhibition of tachykinin NK1 receptor (unknown origin)
Sequence of Substance-P receptor (P25103 whole entry): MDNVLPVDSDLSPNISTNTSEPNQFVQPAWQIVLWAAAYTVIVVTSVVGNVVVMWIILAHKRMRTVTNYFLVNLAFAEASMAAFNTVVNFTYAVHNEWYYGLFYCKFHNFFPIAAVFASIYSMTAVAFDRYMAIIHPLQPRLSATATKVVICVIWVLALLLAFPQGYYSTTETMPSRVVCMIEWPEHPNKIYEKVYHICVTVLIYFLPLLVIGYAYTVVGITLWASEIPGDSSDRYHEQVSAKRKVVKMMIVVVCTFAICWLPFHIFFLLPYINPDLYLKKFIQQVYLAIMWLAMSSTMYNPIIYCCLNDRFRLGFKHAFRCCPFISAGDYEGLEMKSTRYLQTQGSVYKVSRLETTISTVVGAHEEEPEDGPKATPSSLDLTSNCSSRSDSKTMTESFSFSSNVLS

[21] = Inhibition of adenosine transporter (unknown origin); parameters: species or system Homo sapiens
[22] = Unbound brain-to-plasma concentration ratio in CD rat 1 to 100 mg/kg, po measured after 120 mins by LC/MS/MS analysis; format: ADME, organism-based; conditions: brain and plasma (unbound), dose 1-100 mg/kg, read-out: K(p,uu,brain)
[23] = Cardiotoxicity in telemetered Wistar Han rat assessed as NOAEL at 30 mg/kg, po; format: toxicity, organism-based; conditions: in vivo
[24] = Unbound brain-to-plasma concentration ratio in rat at 10 mg/kg, po qd for 4 days by LC/MS/MS analysis; format: ADME, organism-based; conditions: brain and plasma (unbound), time 4 day, read-out: K(p,uu,brain)
[25] = AUC in rat at 10 to 400 mg/kg, po qd for 4 days by LC/MS/MS analysis; format: ADME, organism-based; parameters: time 4 day; conditions: in vivo, 96 h, dose 10-400 mg/kg
[26] = Thermodynamic solubility of the compound in FaSSIF measured after 24 hrs by reverse phase UPLC analysis; format: physicochemical; conditions: read-out: Therm_solubility
[27] = Toxicity in rat bone marrow at 40 to 400 mg/kg, po qd administered for 4 days by micronucleus assay; format: organism-based; conditions: in vivo, 96 h, dose 40-400 mg/kg, time 4 day
[28] = Toxicity in rat assessed as reduction in weight gain at 150 mg/kg, po qd administered for 4 days; format: organism-based; conditions: in vivo, 96 h, time 4 day
[29] = Toxicity in rat assessed as fold increase in serum ALT levels at 150 mg/kg, po qd administered for 4 days; format: organism-based; conditions: in vivo, 96 h, time 4 day
[30] = Toxicity in rat assessed as positive tissue transcriptional score at 40 to 400 mg/kg, po qd administered for 4 days; format: organism-based; conditions: in vivo, 96 h, dose 40-400 mg/kg, time 4 day
[31] = Toxicity in rat assessed as induction of liver injury at 40 to 400 mg/kg, po qd administered for 4 days; format: organism-based; conditions: in vivo, 96 h, dose 40-400 mg/kg, time 4 day
mouse Bcrp [32] = assay: Apparent permeability in mouse Bcrp-transfected dog MDCK-II cells at 0.1 to 1 uM measured after 3 hrs by LC/MS/MS analysis; format: ADME, cell-based, Canis lupus familiaris; conditions: dose 0.1-1 µM
[33] = Dissociation constant, pKa of the compound; format: physicochemical
GSTA5 = assay: Toxicity in rat assessed as fold increase in GSTA5 transcriptional activity in liver at 75 mg/kg, po bid administered for 4 days relative to control; format: organism-based; conditions: time 4 day, read-out: FC
[34] = Toxicity in rat assessed as elevation of PXR gene expression at 10 to 75 mg/kg, po bid administered for 4 days; format: organism-based; conditions: in vivo, 96 h, dose 10-75 mg/kg, time 4 day
[35] = In vivo inhibition of LRRK2 in CD rat assessed as reduction in phosphorylation at Ser935 residue in striatum at 1 mg/kg, po measured after 2 hrs by MSD assay; format: functional
[36] = In vivo inhibition of LRRK2 in CD rat assessed as reduction in phosphorylation at Ser935 residue in striatum at 3 mg/kg, po measured after 2 hrs by MSD assay; format: functional
[37] = In vivo inhibition of LRRK2 in CD rat assessed as reduction in phosphorylation at Ser935 residue in striatum at 30 mg/kg, po measured after 2 hrs by MSD assay; format: functional
[38] = Toxicity in rat assessed as fold increase in serum ALP levels at 150 mg/kg, po qd administered for 4 days; format: organism-based; conditions: in vivo, 96 h, time 4 day

O[C@H]1COC[C@H]1N1CC[C@@H](c2cc3nc(Nc4cnn([C@@H]5CC5(F)F)c4Cl)ncc3cc2Cl)[C@H](F)C1
bioavailability [1]: 83% | IC50 [2]: < 0.0006 µM | fIC50 [3]: 0.57 nM | Papp A→B at 3 h, up to 1 µM (rat Mdr1a (P-gp)): 30 ×10⁻⁶ cm/s | CLint scaled at 0.3 µM [4]: 116 mL/min/kg | CLint scaled at 0.3 µM [5]: 248 mL/min/kg | CL [6]: 1278 mL/min/kg | MRT [7]: 3.9 h | bioavailability [8]: 79% | efflux ratio at 3 h, up to 1 µM (mouse Bcrp [9]): 3.8 | Activity (Salmonella typhimurium [10]): Non-Toxic | Activity (Salmonella typhimurium [11]): Non-Toxic | Activity (Salmonella typhimurium [12]): Non-Toxic | clearance [13]: 9 mL/min/kg | clearance [14]: 21 mL/min/kg | CL [15]: 445 mL/min/kg | CL [16]: 1295 mL/min/kg | MRT [17]: 5.2 h | bioavailability [18]: 18% | Cp(f) [19]: 3.7 nM | Cp(f) [20]: 10.14 nM | IC50 (Substance-P receptor): 5.7 µM | IC50 [21]: 9.6 µM | Kp uu at 2 h [22]: 0.36 | Activity [23]: Non-Toxic | Kp uu at 96 h [24]: 0.67 | AUC [25]: 99 µM·h | solubility thermodynamic at 24 h [26]: 4 µg/mL (≈ 7.36 µM) | Activity [27]: Non-Toxic | Activity [28]: Toxic | fold change (FC) [29]: 2 | Activity [30]: Non-Toxic | Activity [31]: Non-Toxic | Papp at 3 h, up to 1 µM (mouse Bcrp [32]): 28 ×10⁻⁶ cm/s | pKa [33]: 5.65 | fold induction at 96 h (GSTA5): 5 | Activity [34]: Non-Toxic | inhibition in vivo at 1 mg/kg [35]: 7% | inhibition in vivo at 3 mg/kg [36]: 32% | inhibition in vivo at 30 mg/kg [37]: 92% | fold change (FC) [38]: 2
